Results from the supplement of paper PMC13380429.

How the values were obtained:
Conditions in all cases: 72 h
Calu-3 [1] = test: cell viability relative to DMSO; higher = less toxic
Caco-2 [2] = test: as above
HepG2 [3] = test: as above
Vero E6 [4] = test: as above
U2OS [5] = test: as above
Calu-3 [6] = test: drug sensitivity score (DSS) for viability; higher = more toxic; extreme values may be limits of the assay
Caco-2 [7] = test: as above
HepG2 [8] = test: as above
Vero E6 [9] = test: as above
U2OS [10] = test: as above
Calu-3 [11] = test: relative viability EC50 (midpoint between 100% and the lowest measured viability); higher = less toxic
Caco-2 [12] = test: as above
HepG2 [13] = test: as above
Vero E6 [14] = test: as above
U2OS [15] = test: as above

Compound	cell viability (Calu-3 [1]; 1 nM) [%]	cell viability (Calu-3 [1]; 10 nM) [%]	cell viability (Calu-3 [1]; 100 nM) [%]	cell viability (Calu-3 [1]; 1000 nM) [%]	cell viability (Calu-3 [1]; 10000 nM) [%]	cell viability (Caco-2 [2]; 1 nM) [%]	cell viability (Caco-2 [2]; 10 nM) [%]	cell viability (Caco-2 [2]; 100 nM) [%]	cell viability (Caco-2 [2]; 1000 nM) [%]	cell viability (Caco-2 [2]; 10000 nM) [%]	cell viability (HepG2 [3]; 1 nM) [%]	cell viability (HepG2 [3]; 10 nM) [%]	cell viability (HepG2 [3]; 100 nM) [%]	cell viability (HepG2 [3]; 1000 nM) [%]	cell viability (HepG2 [3]; 10000 nM) [%]	cell viability (Vero E6 [4]; 1 nM) [%]	cell viability (Vero E6 [4]; 10 nM) [%]	cell viability (Vero E6 [4]; 100 nM) [%]	cell viability (Vero E6 [4]; 1000 nM) [%]	cell viability (Vero E6 [4]; 10000 nM) [%]	cell viability (U2OS [5]; 1 nM) [%]	cell viability (U2OS [5]; 10 nM) [%]	cell viability (U2OS [5]; 100 nM) [%]	cell viability (U2OS [5]; 1000 nM) [%]	cell viability (U2OS [5]; 10000 nM) [%]	drug sensitivity score (Calu-3 [6])	drug sensitivity score (Caco-2 [7])	drug sensitivity score (HepG2 [8])	drug sensitivity score (Vero E6 [9])	drug sensitivity score (U2OS [10])	relative viability EC50 (Calu-3 [11]) [µM]	relative viability EC50 (Caco-2 [12]) [µM]	relative viability EC50 (HepG2 [13]) [µM]	relative viability EC50 (Vero E6 [14]) [µM]	relative viability EC50 (U2OS [15]) [µM]
COc1ccc(CNCc2cccc3ccccc23)cc1 [ML133]	101	101	102	104	94.6	92.5	95.6	98.5	99.9	88.3	97.8	108	101	110	112	91.2	100	94.1	99	101	104	94.9	100	98.9	97.5	0	0	0	0	0	> 10	> 10	> 10	> 10	> 10
O=C(Oc1ccccc1)c1ccccc1O [phenyl-salicylate]	103	101	93.6	104	94.9	95.3	93.7	98.1	97.1	97.6	100	104	97.1	110	106	105	99.8	105	98.4	104	97.7	100	97.5	102	99.4	0	0	0	0	0	> 10	> 10	> 10	> 10	> 10
O=C1Cc2cc(CCN3CCN(c4nsc5ccccc45)CC3)c(Cl)cc2N1 [ziprasidone]	103	97.8	91.9	97.4	108	100	90.5	98.3	102	75.6	105	120	102	103	83.8	106	105	95.8	104	98.4	101	99.4	100	98.9	96.4	0	0.8	0.2	0	0	> 10	> 10	> 10	> 10	> 10
CC(C)C[C@H](NC(=O)[C@@H](Cc1c[nH]c2ccccc12)NC(=O)[C@H](Cc1ccc(O)cc1)NC(=O)[C@H](CO)NC(=O)[C@H](Cc1c[nH]c2ccccc12)NC(=O)[C@H](Cc1c[nH]cn1)NC(=O)[C@@H]1CCC(=O)N1)C(=O)N[C@@H](CCCNC(=N)N)C(=O)N1CCC[C@H]1C(=O)NCC(N)=O [triptorelin]	90.2	80.1	90	99.2	106	95.7	110	92.8	102	110	102	86.3	93	110	120	94.5	98.5	98	74.8	107	91.2	102	96.8	99.2	108	0	0	0	0	0	> 10	> 10	> 10	> 10	> 10
CC=C1C(=O)C[C@H]2[C@@H]3CCC4=CC(=O)CC[C@]4(C)[C@H]3CC[C@]12C [GR-235]	110	89.9	100	99.8	114	95.6	96.2	99.5	90.3	83.4	85.2	93.1	95.4	101	91	110	108	97.8	104	111	100	98.4	102	98.2	99.1	0	1	0	0	0	> 10	> 10	> 10	> 10	> 10
C#C[C@]1(OC(C)=O)CC[C@H]2[C@@H]3CCC4=C[C@@H](OC(C)=O)CC[C@@H]4[C@H]3CC[C@@]21C [ethynodiol-diacetate]	99.4	132	103	99.6	102	88.6	96.9	92.4	100	88.8	104	104	97.3	103	107	98.6	103	104	98.6	108	99	98.7	99.6	97.6	92.4	0	0	0	0	0	> 10	> 10	> 10	> 10	> 10
CCCCCCCCCCCCCCCCOP(=O)([O-])OCC[N+](C)(C)C [miltefosine]	98.3	91.5	90.3	108	86.5	113	104	106	114	99.8	107	98.5	112	96.4	109	96.1	101	110	105	77.3	96.8	103	97.2	99.9	95.5	0	0	0	0.6	0	> 10	> 10	> 10	> 10	> 10
CCOC(=O)[C@H](CCc1ccccc1)N[C@H]1CCc2ccccc2N(CC(=O)O)C1=O [benazepril]	94.9	97.5	111	97.8	108	99.1	90.8	106	101	94.6	112	101	95.4	104	96.9	103	104	96.1	109	99.2	99.1	94	102	93.8	93.4	0	0	0	0	0	> 10	> 10	> 10	> 10	> 10
COc1ccc2cccc(N3CCN(CCNC(=O)c4ccc(F)cc4)CC3)c2c1	96.6	105	104	106	83	98.3	95.3	98.3	90.6	86.2	99.2	98.9	97.4	95.4	89.5	103	104	97.5	94	89.3	95.7	103	92.7	96.4	90.4	0.2	0.3	0	0	0	> 10	> 10	> 10	> 10	> 10
Cc1ccccc1OCC(O)CO (stereo not given) [mephenesin]	111	91.1	103	101	106	90.8	96.5	94.4	93.1	92.7	107	113	109	102	99.8	110	103	99.6	102	98.4	101	96.8	104	97.1	100	0	0	0	0	0	> 10	> 10	> 10	> 10	> 10
O=C(c1cc2ccccc2o1)N1CCN(Cc2ccccc2)CC1 [befuraline]	94.1	97.8	100	93.8	90.7	85	91	88.8	99.2	84.4	102	97	101	94.1	102	113	97.2	106	103	96.7	95.8	97.6	95.1	98	94.6	0	0	0	0	0	> 10	> 10	> 10	> 10	> 10
CN1C(=O)C(Cc2c[nH]c3ccccc23)NC1=S (stereo not given) [necrostatin-1]	93.9	92	90.3	96.2	99	97.7	95.8	107	110	100	110	94.5	98.1	94.6	90.6	95.8	99	101	99.8	103	93.6	99.2	97.7	98.6	95.1	0	0	0	0	0	> 10	> 10	> 10	> 10	> 10
CCCc1nc(C(C)(C)O)c(C(=O)O)n1Cc1ccc(-c2ccccc2-c2nnn[nH]2)cc1 [olmesartan]	105	101	102	98	101	93	95.5	91.8	90.9	99.3	93.8	108	93.3	98.7	99.6	98.8	102	97.2	96.9	92.7	98.2	96.5	98.7	93.5	99.6	0	0	0	0	0	> 10	> 10	> 10	> 10	> 10
CC(=O)N[C@H]1[C@@H](O)[C@H](O)[C@@H](CO)O[C@@H]1O [N-acetylmannosamine]	106	100	94.7	102	111	102	99.6	100	107	104	108	96.7	110	105	100	97	95.9	92.1	92.8	108	95.6	101	105	103	105	0	0	0	0	0	> 10	> 10	> 10	> 10	> 10
